Measured values from patent US8461178B2, “Naphthyridine derivatives and the use thereof as kinase inhibitors” (Aeterna Zentaris GmbH, priority 2009, dated 2013).
Read-outs that look alike come from different tables or passages of the source.

Experiments:
Aurora-B = biological target: T1, Aurora-B (Homo sapiens, UniProt Q96GD4); assay: Cell-free kinase assay (ALPHA technology), Aurora-B; assay type: biochemical
T1 construct: in some cases as full-length kinases, in some cases as truncated fragments; purchased Upstate/Millipore #14-835
Method: The kinase reaction was stopped by adding 10 μl of the ALPHA bead mix (10 μg/ml, #6760617/PerkinElmer), pre-incubated with anti-phospho PLK antibody (100 pM, #5070, Cell Signaling), in 25 mM Tris, 200 mM NaCl, 100 mM EDTA and 0.3% BSA, and left to stand overnight. The luminiscence was detected the next morning in a Envision instrument (Perkin Elmer). […] 0% controls contained no ATP whereas the 100% controls contained no test substance. The IC50 values were determined with GraphPadPrism.

cRaf-Mek1-Erk2 = cRaf-Mek1-Erk2 (Homo sapiens, UniProt P04049+P28482+Q02750); details: read-out: IC50 cRaf-Mek-Erk; at 10 μM ATP
Method: The inhibitory effect of the inventive compounds was tested on various human serine/threonine kinases and tyrosine kinases in enzymatic assays. Recombinant human kinases, for example Aurora-B, cRaf-Mek1-Erk2, Erk2, Pim-1, HIPK1, KDR, TrkA, Yes, c-Abl and others were used, in some cases as full-length kinases, in some cases as truncated fragments—but at least consisting of the functional kinase domains. The commercial kinase proteins (Proqinase, Millipore) were used as recombinant fusion proteins with GST (glutathione S-transferase) tag or His tag. Depending on the substrate type, the different kinase reactions were quantified by suitable ALPHA™ beads (PerkinElmer).
The calculation of % inhibition values per substance concentration was done by means of the following formula from the raw data determined in the Envision reader:
(§1) The controls were determined 16 fold. 0% controls contained no ATP whereas the 100% controls contained no test substance. The IC50 values were determined with GraphPadPrism.

Erk2 = biological target: T2, Erk2 (Homo sapiens, UniProt P28482); assay: Cell-free kinase assay (ALPHA technology), Erk2; assay type: biochemical; details: at 10 μM ATP
T2 construct: in some cases as full-length kinases, in some cases as truncated fragments
Method: as §1

[1] = at 10 μM ATP, read-out: IC50 Aurora-B
[2] = read-out: IC50 values against Aurora-B

Sequence of cRaf-Mek1-Erk2 (P04049 whole entry, the tested form may be a part): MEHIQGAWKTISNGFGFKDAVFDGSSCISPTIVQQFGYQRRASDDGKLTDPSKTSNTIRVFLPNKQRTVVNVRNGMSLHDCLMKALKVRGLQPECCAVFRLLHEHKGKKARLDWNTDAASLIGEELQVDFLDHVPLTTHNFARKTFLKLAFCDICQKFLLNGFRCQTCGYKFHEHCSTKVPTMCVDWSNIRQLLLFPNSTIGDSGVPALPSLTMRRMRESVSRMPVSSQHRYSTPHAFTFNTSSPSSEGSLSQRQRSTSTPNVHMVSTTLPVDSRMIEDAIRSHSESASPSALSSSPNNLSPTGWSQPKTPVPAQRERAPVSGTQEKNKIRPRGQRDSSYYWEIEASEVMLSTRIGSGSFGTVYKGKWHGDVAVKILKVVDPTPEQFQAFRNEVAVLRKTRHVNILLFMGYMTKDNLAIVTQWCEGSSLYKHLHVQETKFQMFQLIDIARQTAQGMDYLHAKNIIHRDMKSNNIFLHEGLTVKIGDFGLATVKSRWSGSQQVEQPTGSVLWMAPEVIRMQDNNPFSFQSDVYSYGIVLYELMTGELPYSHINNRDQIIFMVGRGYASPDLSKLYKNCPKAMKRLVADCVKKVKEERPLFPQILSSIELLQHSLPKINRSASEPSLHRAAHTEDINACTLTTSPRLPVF
Sequence of cRaf-Mek1-Erk2 (Q02750 whole entry, the tested form may be a part): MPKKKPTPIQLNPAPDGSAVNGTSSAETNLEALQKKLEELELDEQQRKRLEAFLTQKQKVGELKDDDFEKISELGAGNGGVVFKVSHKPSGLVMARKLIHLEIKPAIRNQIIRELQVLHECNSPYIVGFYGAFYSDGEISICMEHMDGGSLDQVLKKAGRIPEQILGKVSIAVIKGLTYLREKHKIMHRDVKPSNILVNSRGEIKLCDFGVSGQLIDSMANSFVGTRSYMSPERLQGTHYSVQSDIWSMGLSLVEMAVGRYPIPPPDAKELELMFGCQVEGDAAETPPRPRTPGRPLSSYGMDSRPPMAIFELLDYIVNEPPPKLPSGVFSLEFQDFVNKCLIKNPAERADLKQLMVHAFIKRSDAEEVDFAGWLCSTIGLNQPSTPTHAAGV
Sequence of cRaf-Mek1-Erk2 (P28482 2-360): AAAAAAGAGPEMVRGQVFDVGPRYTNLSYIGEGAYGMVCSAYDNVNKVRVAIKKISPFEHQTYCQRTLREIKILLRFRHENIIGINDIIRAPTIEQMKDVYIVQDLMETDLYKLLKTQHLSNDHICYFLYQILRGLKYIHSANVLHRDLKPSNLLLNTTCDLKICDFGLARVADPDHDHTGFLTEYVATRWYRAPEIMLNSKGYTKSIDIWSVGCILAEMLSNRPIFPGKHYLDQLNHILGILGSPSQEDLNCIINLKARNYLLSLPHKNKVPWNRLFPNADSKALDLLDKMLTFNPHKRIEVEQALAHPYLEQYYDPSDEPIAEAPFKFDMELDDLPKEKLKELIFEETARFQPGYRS
T1 sequence (Q96GD4 whole entry, the tested form may be a part): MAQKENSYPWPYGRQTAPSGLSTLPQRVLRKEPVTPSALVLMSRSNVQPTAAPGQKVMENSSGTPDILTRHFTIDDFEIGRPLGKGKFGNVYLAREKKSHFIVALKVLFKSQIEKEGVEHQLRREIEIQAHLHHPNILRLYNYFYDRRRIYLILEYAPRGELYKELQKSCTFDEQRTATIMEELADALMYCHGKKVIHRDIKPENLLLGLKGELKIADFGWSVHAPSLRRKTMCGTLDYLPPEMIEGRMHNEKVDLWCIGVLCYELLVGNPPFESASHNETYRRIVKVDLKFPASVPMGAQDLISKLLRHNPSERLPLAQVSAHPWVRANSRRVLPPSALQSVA
T2 sequence (P28482 whole entry, the tested form may be a part): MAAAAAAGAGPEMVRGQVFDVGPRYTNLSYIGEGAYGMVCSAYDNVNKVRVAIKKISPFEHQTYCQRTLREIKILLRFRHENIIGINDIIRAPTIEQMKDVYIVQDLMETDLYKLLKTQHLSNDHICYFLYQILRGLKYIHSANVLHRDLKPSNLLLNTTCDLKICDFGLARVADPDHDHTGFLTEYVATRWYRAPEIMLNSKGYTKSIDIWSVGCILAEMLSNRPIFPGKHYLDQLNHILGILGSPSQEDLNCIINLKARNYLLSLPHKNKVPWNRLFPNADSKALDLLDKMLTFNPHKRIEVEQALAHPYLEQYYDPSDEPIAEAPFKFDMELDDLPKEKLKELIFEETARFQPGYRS

For `O=C(Nc1ccnc2cc(-c3cnn(CCN4CCOCC4)c3)cnc12)NC1CC1` [Compound 38, 1-Cyclopropyl-3-{7-[1-(2-morpholin-4-yl-ethyl)-1H-pyrazol-4-yl]-[1,5]naphthyridin-4-yl}-urea], the IC50 (Aurora-B; [1]) was 0.028 µM, the IC50 (Aurora-B; [2]) was < 0.1 µM and the IC50 (cRaf-Mek1-Erk2) was 2.81 µM. For the same molecule, the IC50 (Erk2) was > 100 µM and the melting point was 127 to 129 °C.
With `CCNC(=O)Nc1ccnc2cc(-c3ccc(OC)c(OC)c3)cnc12` [Compound 7, 1-[7-(3,4-Dimethoxy-phenyl)-[1,5]naphthyridin-4-yl]-3-ethyl-urea] the IC50 (Aurora-B; [1]) was 0.136 µM, the IC50 (cRaf-Mek1-Erk2) was ~100 µM and the IC50 (Erk2) was > 100 µM. The melting point was 215 to 216 °C.
With `Cn1cc(-c2cnc3c(NC(=O)NC(C)(C)C)ccnc3c2)cn1` [Compound 11, 1-tert-Butyl-3-[7-(1-methyl-1H-pyrazol-4-yl)-[1,5]naphthyridin-4-yl]-urea] the IC50 (Aurora-B; [1]) was 0.112 µM, the IC50 (cRaf-Mek1-Erk2) was 12.6 µM and the IC50 (Erk2) was > 31.6 µM. It also gave a melting point of 215 to 216 °C.
For `O=C(Nc1ccnc2cc(-c3ccc4[nH]ccc4c3)cnc12)NC1CC1` [Compound 40, 1-Cyclopropyl-3-[7-(1H-indol-5-yl)-[1,5]naphthyridin-4-yl]-urea], the IC50 (Aurora-B; [1]) was 2.12 µM, the IC50 (cRaf-Mek1-Erk2) was > 100 µM and the IC50 (Erk2) was > 100 µM. The melting point was 214 to 215 °C.
For `O=C(Nc1ccnc2cc(-c3ccccc3)cnc12)NC1CC1` [Compound 39, 1-Cyclopropyl-3-(7-phenyl-[1,5]naphthyridin-4-yl)-urea], the IC50 (Aurora-B; [1]) was 0.889 µM, the IC50 (cRaf-Mek1-Erk2) was 20.3 µM and the IC50 (Erk2) was > 100 µM. The melting point was 188 to 190 °C.
With `CCCNC(=O)Nc1ccnc2cc(-c3cnn(C)c3)cnc12` [Compound 19, 1-[7-(1-Methyl-1H-pyrazol-4-yl)-[1,5]naphthyridin-4-yl]-3-propyl-urea] the IC50 (Aurora-B; [1]) was 0.026 µM, the IC50 (Aurora-B; [2]) was < 0.1 µM and the IC50 (cRaf-Mek1-Erk2) was 9.74 µM. The IC50 (Erk2) was > 100 µM and the melting point was 216 to 217 °C.
For `CCNC(=O)Nc1ccnc2cc(-c3cnn(C)c3)cnc12` [Compound 10, 1-Ethyl-3-[7-(1-methyl-1H-pyrazol-4-yl)-[1,5]naphthyridin-4-yl]-urea], the IC50 (Aurora-B; [1]) was 0.038 µM, the IC50 (Aurora-B; [2]) was < 0.1 µM and the IC50 (cRaf-Mek1-Erk2) was > 31.6 µM. The IC50 (Erk2) was > 100 µM and the melting point was 215 to 216 °C.
For `Cn1cc(-c2cnc3c(NC(=O)NCCc4ccccc4)ccnc3c2)cn1` [Compound 33, 1-[7-(1-Methyl-1H-pyrazol-4-yl)-[1,5]naphthyridin-4-yl]-3-phenethyl-urea], the IC50 (Aurora-B; [1]) was 0.086 µM, the IC50 (cRaf-Mek1-Erk2) was 16.6 µM and the IC50 (Erk2) was > 100 µM. It also gave a melting point of 222 to 223 °C.
In the case of `Cn1cc(-c2cnc3c(NC(=O)Nc4ccccc4)ccnc3c2)cn1` [Compound 23, 1-[7-(1-Methyl-1H-pyrazol-4-yl)-[1,5]naphthyridin-4-yl]-3-phenyl-urea], the IC50 (Aurora-B; [1]) is reported as 1.26 µM, the IC50 (cRaf-Mek1-Erk2) is reported as > 100 µM and the IC50 (Erk2) is reported as > 100 µM. It also gave a melting point of 294 to 295 °C.
With `O=C(Nc1ccnc2cc(-c3ccnc(F)c3)cnc12)NC1CC1` [Compound 37, 1-Cyclopropyl-3-[7-(2-fluoro-pyridin-4-yl)-[1,5]naphthyridin-4-yl]-urea] the IC50 (Aurora-B; [1]) was 0.935 µM, the IC50 (cRaf-Mek1-Erk2) was 10.3 µM and the IC50 (Erk2) was > 100 µM. The melting point was 226 to 229 °C.
For `CCNC(=O)Nc1ccnc2cc(-c3cc(Cl)c(O)c(Cl)c3)cnc12` [Compound 15, 1-[7-(3,5-Dichloro-4-hydroxy-phenyl)-[1,5]naphthyridin-4-yl]-3-ethyl-urea], the IC50 (Aurora-B; [1]) was 0.227 µM, the IC50 (cRaf-Mek1-Erk2) was 7.85 µM and the IC50 (Erk2) was > 31.6 µM. The melting point was > 300 °C.
With `Cn1cc(-c2cnc3c(NC(=O)NC4CC(F)(F)C4)ccnc3c2)cn1` [Compound 24, 1-(3,3-Difluoro-cyclobutyl)-3-[7-(1-methyl-1H-pyrazol-4-yl)-[1,5]naphthyridin-4-yl]-urea] the IC50 (Aurora-B; [1]) was 0.784 µM, the IC50 (cRaf-Mek1-Erk2) was 26.2 µM and the IC50 (Erk2) was > 100 µM. The melting point was 229 to 230 °C.
